Test results from US4638070A, “Heterocyclic amino-alcohol derivatives” (Continental Pharma, priority 1980, dated 1987).

Experiments:
[1] = tested on: guinea-pig ileum (acetylcholine contractions); experiment: Antispasmodic activity in vitro, contractions caused by acetylcholine; details: added 15 minutes before spasm-producing agent
Method: (§1) (4) The antispasmodic activity was measured in vitro, on guinea-pig ileum, the contractions of which were caused by histammne (Hist.), acetylcholine (Achol) or barium chloride (BaCl2). The tested products were added to perfusion bath 15 minutes before the spasm-producing agents.
(§2) The dose is given in micograms (μg) per ml of bath causing complete spasm inhibition.

[2] = tested on: unanaesthetized, hypertension-suffering rat; experiment: Antihypertensive activity (systolic arterial pressure), oral; format: in vivo; details: 60 mg/kg, hypertensive rat, 3 hours
Method: (2) The antihypertensive activity was measured on unanaesthetized, hypertension-suffering rat. The tested substances were orally given at a rate of 60 mg/kg. The systolic arterial pressure was measured every 30 minutes for 2 hours before and for 3 hours after the tested product was given. Results are expressed as follows: […]
O: no reduction of arterial pressure.
+: reduction lower than 10 mm Hg.
++: reduction of 10 to 20 mm Hg.
+++: reduction higher than 20 mm Hg.

[3] = Acute toxicity, oral, LD50 (Litchfield and Wilcoxon); details: mouse, in vivo, fasted male mice, confidence limits p=95% in brackets
Method: (1) The acute toxicity was determined on fasted male mice. The tested substances were orally administered and LD50 values (lethal dose for 50% of animals) were calculated according to the method of Litchfield and Wilcoxon (J. Pharmacol. exp. Ther. 96, 94-113, 1949). These LD50 values are given in mg/kg and also, when possible, with their confidence limits for p=95%.

[4] = tested on: femoral artery; experiment: Vasodilator activity, femoral artery (technique of perfused paw); format: in vivo; set-up: key: O: no action; +: slight activity; ++: effect equal to half the effect of papaverine; +++: effect equal to that of papaverine; ++++: effect higher than that of papaverine; details: intra-arterial, 30 mg/kg, anaesthetized dog, vs papaverine at same dose
Method: (3) The vasodilator activity was measured at the level of femoral artery on anaesthetized dog (technique of perfused paw). The tested substances were given intra-arterially at the rate of 30 mg/kg. Results are expressed with respect to papaverine tested at the same dose.
++: effect equal to half the effect of papaverine.
+++: effect equal to that of papaverine.
++++: effect higher than that of papaverine.

[5] = tested on: guinea-pig ileum (histamine contractions); experiment: Antispasmodic activity in vitro, contractions caused by histamine; details: added 15 minutes before spasm-producing agent
Method: as §1, §2

[6] = tested on: guinea-pig ileum (barium chloride contractions); experiment: Antispasmodic activity in vitro, contractions caused by barium chloride; details: added 15 minutes before spasm-producing agent
Method: as §1, §2

SMILES | ANTISPASMODIC ACTIVITY ACHOL (dose causing complete spasm inhibition) [1] | ANTIHYPERTENSIVE ACTIVITY [2] | LD50 [3] | VASODILATOR ACTIVITY [4] | ANTISPASMODIC ACTIVITY HIST. (dose causing complete spasm inhibition) [5] | ANTISPASMODIC ACTIVITY BaCl2 (dose causing complete spasm inhibition) [6]
CC1Cc2cc(C(O)C(C)NCCOc3ccccc3)ccc2S1 (stereo not drawn) [No 61] | 3.3 μg per ml | +++ (reduction higher than 20 mm Hg) | ~4000 mg/kg | ++ | 3.3 μg per ml | 
Cc1ccc(OCCNC(C)C(O)c2ccc3c(c2)CCCS3)cc1 (stereo not drawn) [No 54] | 3.3 μg per ml | ++ (reduction of 10 to 20 mm Hg) | > 4000 mg/kg | +++ | 3.3 μg per ml | 
CCCCSCCCNC(C)C(O)c1ccc2c(c1)CCCS2 (stereo not drawn) [No 80] | 1.7 μg per ml | +++ (reduction higher than 20 mm Hg) | 5000 mg/kg | ++ | 0.8 μg per ml | 
CC(NCCc1ccccc1)C(O)c1ccc2c(c1)CCCS2 (stereo not drawn) [No 13] | 0.8 μg per ml |  |  | ++ | 3.3 μg per ml | 3.3 μg per ml
CC1Cc2cc(C(O)C(C)NCCOc3ccc(Cl)cc3)ccc2S1 (stereo not drawn) [No 58] | 1.7 μg per ml | +++ (reduction higher than 20 mm Hg) | > 4000 mg/kg | +++ | 1.7 μg per ml | 
CC(NCCCC(=O)c1ccc(F)cc1)C(O)c1ccc2c(c1)CCS2 (stereo not drawn) [No 111] | 0.8 μg per ml | ++ (reduction of 10 to 20 mm Hg) | ~700 mg/kg | +++ | 0.3 μg per ml | 
CCCCCCCCNC(C)C(O)c1ccc2c(c1)CC(C)O2 (stereo not drawn) [No 55] | 8.3 μg per ml | +++ (reduction higher than 20 mm Hg) | 350 mg/kg | +++ | 3.3 μg per ml | 
CC(NCCOc1ccc(Cl)cc1)C(O)c1ccc2c(c1)CCCS2 (stereo not drawn) [No 40] | 1.7 μg per ml | +++ (reduction higher than 20 mm Hg) | > 4000 mg/kg | +++ | 1.7 μg per ml | 
CC1CSc2ccc(C(O)C(C)NCCOc3ccccc3)cc2C1 (stereo not drawn) [No 49] | 1.7 μg per ml | +++ (reduction higher than 20 mm Hg) | ~3700 mg/kg | +++ | 3.3 μg per ml | 
CC1Cc2cc(C(O)C(C)NCCCC(=O)c3ccc(F)cc3)ccc2O1 (stereo not drawn) [No 105] | 3.3 μg per ml | +++ (reduction higher than 20 mm Hg) | ~360 mg/kg | +++ | 3.3 μg per ml | 
CC(NCCOc1ccccc1)C(O)c1ccc2c(c1)CCC2 (stereo not drawn) [No 168] | 3.3 μg per ml | +++ (reduction higher than 20 mm Hg) | > 2000 mg/kg | ++++ | 3.3 μg per ml | 
CC(NCCCSc1ccccc1)C(O)c1ccc2c(c1)CCCS2 (stereo not drawn) [No 37] | 1.7 μg per ml | +++ (reduction higher than 20 mm Hg) | > 4000 mg/kg | +++ | 1.7 μg per ml | 
CC(NCCc1ccccc1)C(O)c1ccc2c(c1)CCCCS2 (stereo not drawn) [No 14] | 3.3 μg per ml |  |  | +++ | 1.7 μg per ml | 1.7 μg per ml
CC(NC1CCCCCCC1)C(O)c1ccc2c(c1)CCCS2 (stereo not drawn) [No 27] | 1.7 μg per ml |  |  | ++ | 1.7 μg per ml | 1.7 μg per ml
CC1CSc2ccc(C(O)C(C)NCCCCc3ccccc3)cc21 (stereo not drawn) [No 109] | 0.8 μg per ml | +++ (reduction higher than 20 mm Hg) | ~2750 mg/kg | +++ | 0.17 μg per ml | 
CC(NCCCC(=O)c1ccc(F)cc1)C(O)c1ccc2c(c1)CCCS2 (stereo not drawn) [No 102] | 0.3 μg per ml | +++ (reduction higher than 20 mm Hg) | > 4000 mg/kg | ++ | 0.8 μg per ml | 
CC1Cc2cc(C(O)C(C)NCCCCc3ccccc3)ccc2O1 (stereo not drawn) [No 70] | 1.7 μg per ml | +++ (reduction higher than 20 mm Hg) | 285 mg/kg | ++ | 1.7 μg per ml | 
CC(NCCOc1ccccc1)C(O)c1ccc2c(c1)CCCCS2 (stereo not drawn) [No 36] | 1.7 μg per ml | +++ (reduction higher than 20 mm Hg) | > 4000 mg/kg | +++ | 3.3 μg per ml | 
CC1Cc2cc(C(O)C(C)NCCCCc3ccc(Cl)cc3)ccc2S1 (stereo not drawn) [No 68] | 0.8 μg per ml | +++ (reduction higher than 20 mm Hg) | < 500 mg/kg | +++ | 3.3 μg per ml | 
CC(NCCCSc1ccccc1)C(O)c1ccc2c(c1)CCCCS2 (stereo not drawn) [No 39] | 0.8 μg per ml | ++ (reduction of 10 to 20 mm Hg) | > 4000 mg/kg | +++ | 1.7 μg per ml | 
CC(NCCCc1ccccc1)C(O)c1ccc2c(c1)CCS2 (stereo not drawn) [No 57] | 1.7 μg per ml | ++ (reduction of 10 to 20 mm Hg) | > 2000 mg/kg | +++ | 1.7 μg per ml | 
CC(NCCCCc1ccccc1)C(O)c1ccc2c(c1)CCC2 (stereo not drawn) [No 163] | 0.8 μg per ml | +++ (reduction higher than 20 mm Hg) | 800 mg/kg | ++ | 1.7 μg per ml | 
CC(NCCCOc1ccccc1)C(O)c1ccc2c(c1)CCCS2 (stereo not drawn) [No 75] | 1.7 μg per ml | +++ (reduction higher than 20 mm Hg) | > 4000 mg/kg | +++ | 0.8 μg per ml | 
CC(NCCCCCc1ccccc1)C(O)c1ccc2c(c1)CCCS2 (stereo not drawn) [No 8] | 1.7 μg per ml |  |  | ++++ | 0.8 μg per ml | 0.8 μg per ml
CC(NCC(c1ccccc1)c1ccccc1)C(O)c1ccc2c(c1)CCCS2 (stereo not drawn) [No 21] | 0.33 μg per ml |  |  | +++ | 0.33 μg per ml | 1.7 μg per ml
CC(NCCCc1ccccc1)C(O)c1ccc2c(c1)CCC2 (stereo not drawn) [No 165] | 1.7 μg per ml | +++ (reduction higher than 20 mm Hg) | 3800 mg/kg | +++ | 1.7 μg per ml | 
CC(NCCCSc1ccccc1)C(O)c1ccc2c(c1)CCS2 (stereo not drawn) [No 60] | 1.7 μg per ml | +++ (reduction higher than 20 mm Hg) | > 2000 mg/kg | +++ | 3.3 μg per ml | 
CCCCCCCCNC(C)C(O)c1ccc2c(c1)CCC2 (stereo not drawn) [No 164] | 0.8 μg per ml | ++ (reduction of 10 to 20 mm Hg) | 1750 mg/kg | +++ | 0.8 μg per ml | 
